# According to patent US11066447B2, “Aureobasidium derivatives and methods of synthesis” (AureoGen Biosciences, Inc., priority 2016, dated 2021):
# Where two headings read alike, the source gives them in different places. Numbered stars: 1 amine (or outer) side, 2 acyl side, 3 side chain; on linkers, the order of the positions; unused ones are H or OH. Square brackets hold non-standard residues; d marks the D form. Peptide text beside a SMILES is read from it. X24 = CN([C@@H](Cc1cccc(-c2ccnc(N3CCOCC3)c2)c1)C(=O)[*:2])[*:1]; X17 = CN([C@@H](Cc1cccc(-c2cnc3ccccc3c2)c1)C(=O)[*:2])[*:1]; X18 = CN([C@@H](Cc1cccc(-c2ccc3ccncc3c2)c1)C(=O)[*:2])[*:1]; Hmp(2R,3S) = CC[C@H](C)[C@@H](O)C(=O)O; NMeVal(β-OH) = CN[C@H](C(=O)O)C(C)(C)O; NMeV = CN[C@H](C(=O)O)C(C)C
# Tests used:
# [1] = tested on: C. neoformans MMX 0634 ATCC 90112; assay: MIC assay (CLSI microdilution); assay type: cell-based; conditions: Cryptococcus neoformans, ATCC90112, RPMI plus 0.002% Tween-80; read-out: MIC
# Experimental: (§1) Aureobasidin and test compounds (i.e., AbA derivatives of the present invention) were received from Kalexsyn, Inc. (Kalamazoo, Mich.) as powder and were stored at 4° C. until the day of assay. […] amphotericin was obtained from Sigma Aldrich and stored under like conditions. […] Ethanol (95%) was used as a solvent and diluent for all AbA compounds. Amphotericin B was tested from 0.06-64 μg/mL. Amphotericin B (Sigma Aldrich; St. Louis, Mo.; Cat No. A9528-100MG, Lot No. 120M4087) was dissolved and diluted with dimethylsulfoxide (DMSO; Sigma Aldrich; St. Louis, Mo.; Cat No. 472301 Lot No. SHBD2072V).
# (§2) The solvents were added to the test agents and the stock solutions stood for approximately 1 hr at room temperature prior to use to auto sterilize. Stock solutions were prepared at 40× the desired top concentration in the test plate.
# (§3) All of the test isolates were originally received from either the American Type Culture Collection (ATCC), clinical labs, or directly from Aureogen Biosciences. Organisms stored by Micromyx were cultured on agar medium appropriate to each organism. Colonies were picked by swab from the isolation plates and put into suspension in appropriate broth containing cryoprotectant. The suspensions were aliquoted into cryogenic vials and maintained at −80° C.
# (§4) Prior to testing, Candida isolates were streaked from the frozen vials on Sabouraud dextrose agar. The yeast isolates were incubated for 48 hours at 35° C. before use. The fungal isolates were obtained from enumerated fungal stocks previously prepared at Micromyx and stored in phosphate buffered saline at 4° C.
# (§5) Test Media. The medium employed for the MIC assay was RPMI-1640 medium from HyClone Laboratories (Logan, Utah; Lot No. AYB60287A). The medium was prepared according to Clinical and Laboratory Standards Institute (CLSI) guidelines (1, 2), and modified to include 0.002% Tween-80. Candida parapsilosis ATCC 22019 (MMX 2323) and Aspergillus fumigatus ATCC MYA-3626 (MMX 5280) were also tested without Tween-80 to provide data for the quality control of amphotericin B in accordance with CLSI (3) and to assess the effect of Tween-80 on the activity of the test agents.
# (§6) Test Procedure. The MIC assay method followed the procedure described by CLSI (1, 2) and employed automated liquid handlers to conduct serial dilutions and liquid transfers. Automated liquid handlers included the Multidrop 384 (Labsystems, Helsinki, Finland), Biomek 2000 and Biomek FX (Beckman Coulter, Fullerton Calif.). The wells in columns 2-12 in standard 96-well microdilution plates (Costar 3795) were filled with 150 μl of the appropriate diluent (95% EtOH for investigational compounds, 100% DMSO for amphotericin B). These assay plates would become the ‘mother plates’ from which the assay ‘daughter plates’ would be prepared. The drugs (300 μL at 40× the desired top concentration in the test plates) were dispensed into the appropriate well in Column 1 of the mother plates. The Biomek 2000 was used to make two-fold serial dilutions through Column 11 in the “mother plate”. The wells of Column 12 contained no drug and served as the organism growth control wells.
# (§7) The daughter plates were loaded with 185 μL per well on the Multidrop 384 with RPMI plus 0.002% Tween-80 or RPMI containing no Tween-80 for the testing of the two QC isolates. The daughter plates were prepared on the Biomek FX instrument which transferred 5 μL of drug solution from each well of a mother plate to each corresponding well of each daughter plate in a single step.
# (§8) A standardized inoculum of each organism was prepared per CLSI methods (1, 2). For the Candida isolates, colonies were picked from the streak plate and a suspension was prepared in RPMI to equal a 0.5 McFarland standard. This suspension was diluted 1:100 in RPMI resulting in a final concentration of approximately 0.5-2.5×10^3 CFU/mL. […]
# [2] = tested on: C. albicans MMX 2000 ATCC 10231; assay: MIC assay (CLSI microdilution); assay type: cell-based; conditions: Candida albicans, ATCC10231, RPMI plus 0.002% Tween-80; read-out: MIC
# Experimental: as §1, §2, §3, §4, §5, §6, §7, §8
# [3] = tested on: A. niger MMX 0624 ATCC 16888; assay: MIC/MEC assay (CLSI microdilution); assay type: cell-based; conditions: Aspergillus niger, ATCC16888, 48 h; for minimal effective concentration: RPMI plus 0.002% Tween-80, read-out: MEC; for MIC: RPMI plus 0.002% Tween-80, read-out: MIC
# Experimental: as §1, §2, §3, §4, §5, §6, §7, §8
# A. fumigatus MMX 5944 = assay: MIC/MEC assay (CLSI microdilution); assay type: cell-based; conditions: Aspergillus fumigatus, MMX5944, 48 h; for minimal effective concentration: RPMI plus 0.002% Tween-80; for MIC: RPMI plus 0.002% Tween-80, read-out: MIC
# Experimental: as §1, §2, §3, §4, §5, §6, §7, §8
# [4] = tested on: A. fumigatus MMX 6781 ATCC MYA-4609; assay: MIC/MEC assay (CLSI microdilution); assay type: cell-based; conditions: Aspergillus fumigatus; for MIC: 48 h, RPMI plus 0.002% Tween-80, read-out: MIC; for minimal effective concentration: RPMI plus 0.002% Tween-80, 48 hr
# Experimental: as §1, §2, §3, §4, §5, §6, §7, §8
# [5] = tested on: A. fumigatus from Aureogen; assay: MIC/MEC assay (CLSI microdilution); assay type: cell-based; conditions: Aspergillus fumigatus, 48 h; for minimal effective concentration: RPMI plus 0.002% Tween-80; for MIC: RPMI plus 0.002% Tween-80, read-out: MIC
# Experimental: as §1, §2, §3, §4, §5, §6, §7, §8
# [6] = tested on: A. fumigatus MMX 6782 ATCC 13073; assay: MIC/MEC assay (CLSI microdilution); assay type: cell-based; conditions: Aspergillus fumigatus, ATCC13073, 48 h; for minimal effective concentration: RPMI plus 0.002% Tween-80, read-out: MEC; for MIC: RPMI plus 0.002% Tween-80, read-out: MIC
# Experimental: as §1, §2, §3, §4, §5, §6, §7, §8
# A. flavus MMX 5948 = assay: MIC/MEC assay (CLSI microdilution); assay type: cell-based; conditions: Aspergillus flavus, MMX5948, 48 h; for minimal effective concentration: RPMI plus 0.002% Tween-80; for MIC: RPMI plus 0.002% Tween-80, read-out: MIC
# Experimental: as §1, §2, §3, §4, §5, §6, §7, §8
# [7] = tested on: C. parapsilosis MMX 2323 ATCC 22019; assay: MIC assay (CLSI microdilution); assay type: cell-based, Candida parapsilosis; conditions: read-out: MIC
# Experimental: as §1, §2, §3, §4, §5, §6, §7, §8
# [8] = tested on: A. fumigatus MMX 5280 ATCC MYA-3626; assay: MIC/MEC assay (CLSI microdilution); assay type: cell-based, Aspergillus fumigatus; conditions: Aspergillus fumigatus, 48 h
# Experimental: as §1, §2, §3, §4, §5, §6, §7, §8
# [9] = ATCC22019, RPMI plus 0.002% Tween-80
# [10] = RPMI plus 0.002% Tween-80, read-out: MEC
# [11] = RPMI plus 0.002% Tween-80, read-out: MIC
# [12] = Without Tween-80, read-out: MEC
# [13] = Without Tween-80, read-out: MIC
MIC [1] [mg/L],MIC [2] [mg/L],MIC [3] [mg/L],MIC (A. fumigatus MMX 5944) [mg/L],MIC [4] [mg/L],MIC [5] [mg/L],MIC [6] [mg/L],MIC (A. flavus MMX 5948) [mg/L],"MIC [7, 9] [mg/L]","MIC ([7]; ATCC22019, Without Tween-80) [mg/L]","MIC [8, 11] [mg/L]","MIC [8, 13] [mg/L]",SMILES,minimal effective concentration [3] [µg/mL],minimal effective concentration (A. fumigatus MMX 5944) [µg/mL],minimal effective concentration [4] [µg/mL],minimal effective concentration [5] [µg/mL],minimal effective concentration [6] [µg/mL],minimal effective concentration (A. flavus MMX 5948) [µg/mL],"minimal effective concentration [8, 10] [µg/mL]","minimal effective concentration [8, 12] [µg/mL]"
0.25,0.015,0.12,> 64,> 64,> 64,> 64,0.5,0.06,1,> 64,> 64,"CC[C@H](C)[C@@H]1NC(=O)[C@@H]2CCCN2C(=O)[C@H](Cc2cccc(-c3ccc4ccncc4c3)c2)N(C)C(=O)[C@H](Cc2ccccc2)NC(=O)[C@H](C(C)C)N(C)C(=O)[C@@H]([C@@H](C)CC)OC(=O)[C@H](C(C)(C)O)N(C)C(=O)[C@H](CC(C)C)NC(=O)[C@H](C(C)C)N(C)C1=O [Compound 17] (cyclo(F[X18]PI[NMeV]L[NMeVal(β-OH)][Hmp(2R,3S)][NMeV]))",0.06,> 64,> 64,> 64,> 64,0.12,> 64,> 64
0.25,0.015,0.25,> 64,> 64,> 64,> 64,> 64,0.06,1,> 64,> 64,"CC[C@H](C)[C@@H]1NC(=O)[C@@H]2CCCN2C(=O)[C@H](Cc2cccc(-c3ccnc(N4CCOCC4)c3)c2)N(C)C(=O)[C@H](Cc2ccccc2)NC(=O)[C@H](C(C)C)N(C)C(=O)[C@@H]([C@@H](C)CC)OC(=O)[C@H](C(C)(C)O)N(C)C(=O)[C@H](CC(C)C)NC(=O)[C@H](C(C)C)N(C)C1=O [Compound 21] (cyclo(F[X24]PI[NMeV]L[NMeVal(β-OH)][Hmp(2R,3S)][NMeV]))",0.06,> 64,> 64,> 64,> 64,0.25,> 64,> 64
0.12,0.015,0.06,> 64,> 64,> 64,> 64,0.5,0.12,1,> 64,> 64,"CC[C@H](C)[C@@H]1NC(=O)[C@@H]2CCCN2C(=O)[C@H](Cc2cccc(-c3cnc4ccccc4c3)c2)N(C)C(=O)[C@H](Cc2ccccc2)NC(=O)[C@H](C(C)C)N(C)C(=O)[C@@H]([C@@H](C)CC)OC(=O)[C@H](C(C)(C)O)N(C)C(=O)[C@H](CC(C)C)NC(=O)[C@H](C(C)C)N(C)C1=O [Compound 27] (cyclo(F[X17]PI[NMeV]L[NMeVal(β-OH)][Hmp(2R,3S)][NMeV]))",0.06,> 64,> 64,> 64,> 64,0.12,> 64,> 64
